Data as given in PMC7618597, “Dual Nurr1/RXR agonism of valerenic acid and synthetic mimetics enables dimer-selective Nurr1 modulation” (ACS medicinal chemistry letters, 2025).
Values joined by “and” are separate entries in the source; they are usually repeats but may differ in a detail not shown here. Identical values can stand only once.

Key:
[1] = biological target: Nurr1:RXR heterodimer (Homo sapiens, UniProt P19793+P43354); assay: Nurr1 LBD:RXRα LBD heterodimerization assay (HTRF); format: biochemical; details: 10 µM, Figure S4
Sequence of Nurr1:RXR heterodimer (P43354 360-595 limits assumed, one chain of several): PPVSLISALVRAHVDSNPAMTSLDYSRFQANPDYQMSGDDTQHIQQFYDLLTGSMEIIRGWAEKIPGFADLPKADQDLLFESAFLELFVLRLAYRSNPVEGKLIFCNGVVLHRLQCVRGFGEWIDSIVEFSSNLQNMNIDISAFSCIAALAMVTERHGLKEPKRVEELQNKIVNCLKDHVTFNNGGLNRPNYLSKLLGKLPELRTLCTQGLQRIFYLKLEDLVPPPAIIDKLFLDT
Protocol: (§1) To determine the molecular response of the Nurr1:RXR heterodimer on dual agonist binding, we employed homogenous time-resolved fluorescence resonance energy transfer (HTRF) based assays with labeled Nurr1 and RXR LBD proteins. Tb^3+-cryptate as streptavidin conjugate served as FRET donor and was coupled to biotinylated proteins. sGFP fusion proteins of the receptors of interest were used as FRET acceptors. Ligand effects on dimer formation were determined by titrating the sGFP-labeled dimer partner with a fixed concentration of the Tb^3+-labeled counterpart. […] The same effect was also observable for the natural product 1 (Figure S3).
(§2) Nurr1 dimerization assays (HTRF). Modulation of Nurr1 LBD homodimerization and heterodimerization of the LDBs of Nurr1 and RXRα was investigated by HTRF as reported previously4. Nurr1 LBD or RXRα LBD proteins labeled with sGFP were titrated against a fixed concentration of Tb3+-cryptate as streptavidin conjugate (Tb-SA) (610SATLF, Revvity) coupled to biotinylated Nurr1 LBD protein in the presence of test compounds at 30 µM or absence of compound as a negative control (apo). Assay solutions were prepared in buffer containing 25 mM HEPES pH 7.5, 150 mM KF, 5% (m/v) glycerol, 5 mM DTT, 0.1% (m/v) CHAPS and 1%
(§3) DMSO. The FRET donor complex was formed from biotinylated Nurr1 LBD (final concentration 0.188 nM) and Tb-SA (0.375 nM) and was kept constant. For the homodimerization assay, the FRET acceptor consisted of sGFP-Nurr1 LBD, which was titrated from 0.5 µM, while free sGFP was added to keep the total GFP content stable at 0.5 µM. […] Samples were equilibrated at room temperature for 2 h and fluorescence intensities (FI) after excitation at 340 nm were recorded at 520 nm for sGFP acceptor fluorescence and at 620 for Tb-SA donor fluorescence on a SPARK plate reader (Tecan Group Ltd.). […]
(§4) Evaluation of Nurr1-regulated gene expression. […] RNA concentration and purity were assessed using a NanoDrop One UV-vis spectrophotometer (Thermo Fisher Scientific) at 260/280 nm. […]

[2] = tested on: RXR; assay: Gal4 hybrid reporter gene assay, RXR (subtype not stated); format: cell-based; details: for activity on RXR (fold reporter activation vs. DMSO ctrl): 30 and 100 µM, Figure S1, mean±SD, n=3; for RXR activation: amide analogues
Protocol: (§5) modified Eagle’s medium (DMEM), high glucose supplemented with 10% fetal calf serum (FCS), sodium pyruvate (1 mM), penicillin (100 U/mL), and streptomycin (100 μg/mL) at 37 °C and 5% CO2 and seeded in 96-well plates (3×10^4 cells/well). After 24 h, the medium was changed to Opti-MEM without supplements, and the cells were transiently transfected using Lipofectamine LTX reagent (Invitrogen) according to the manufacturer’s protocol. Five hours after transfection, the cells were incubated with the test compounds in Opti-MEM supplemented with penicillin (100 U/mL), streptomycin (100 μg/mL), and 0.1% DMSO for 15 h before luciferase activity was measured using the Dual -Glo Luciferase Assay System (Promega) according to the manufacturer’s protocol on a Tecan Spark l uminometer (Tecan Deutschland GmbH, Germany). Firefly luminescence was divided by Renilla luminescence and multiplied by 1000, resulting in relative light units (RLU) to normalize for transfection efficiency and cell growth. Fold activation was obtained by dividing the mean RLU of a sample by the mean RLU of the untreated control. All samples were tested in at least three biologically independent experiments in duplicates. For dose –response curve fitting and calculation of EC50 values, the equation “[Agonist] vs. response – Variable slope (four parameters)” was used in GraphPad Prism (version 5.04, GraphPad Software, La Jolla, CA, USA). […] (10 μM, NR4A) and bexarotene (1 µM, NR2B) served as the positive control. […]
(§6) 150 μM in the same buffer containing 2-4% DMSO) in 21–26 injections (1 × 1 μL and 20 × 4 to 25 × 4 μL) with an injection interval of 120 s. As control experiments, the test compounds were titrated to the buffer, and the buffer was titrated to the protein under otherwise identical conditions. The heat rates of the compound-Nurr1 LBD titrations were analyzed using NanoAnalyze software (TA Instruments, New Castle, DE) with an independent binding model.

[3] = biological target: T1, Nurr1 (Homo sapiens, UniProt P43354); assay: Gal4-hybrid reporter gene assay, Nurr1; format: cell-based; details: for activity on Nurr1 (fold reporter activation vs. DMSO ctrl): 30 and 100 µM, Figure S1, mean±SD, n=3; for remain. Nurr1 activity: 30 μM; for agonist activity on Gal4-Nurr1: amide analogues
T1 construct: pFA-CMV-hNurr1-LBD; expressed in transfected cells; host or cells: HEK293T
T1 sequence (P43354 360-595 limits assumed): as the sequence (P43354 360-595 limits assumed, one chain of several) above
Protocol: as §5, §6

[4] = biological target: T2, RXRα (Homo sapiens, UniProt P19793); assay: Gal4-hybrid reporter gene assay, RXRα; format: cell-based; details: for RXRα activity at single concentration: 30 μM
T2 construct: pFA-CMV-hRXRα-LBD; expressed in transfected cells; host or cells: HEK293T
T2 sequence (P19793 227-458 limits assumed): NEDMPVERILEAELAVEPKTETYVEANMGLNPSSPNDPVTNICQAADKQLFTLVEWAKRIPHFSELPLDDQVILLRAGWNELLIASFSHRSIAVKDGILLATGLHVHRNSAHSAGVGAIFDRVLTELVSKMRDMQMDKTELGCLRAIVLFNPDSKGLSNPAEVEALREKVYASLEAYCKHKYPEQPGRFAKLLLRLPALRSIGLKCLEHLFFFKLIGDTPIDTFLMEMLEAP
Protocol: as §5, §6

[5] = biological target: T3, RXRγ (Homo sapiens, UniProt P48443); assay: Gal4-hybrid reporter gene assay, RXRγ; format: cell-based; details: for RXRγ activity at single concentration: 30 μM
T3 construct: pFA-CMV-hRXRγ-LBD; expressed in transfected cells; host or cells: HEK293T
T3 sequence (P48443 231-459 limits assumed): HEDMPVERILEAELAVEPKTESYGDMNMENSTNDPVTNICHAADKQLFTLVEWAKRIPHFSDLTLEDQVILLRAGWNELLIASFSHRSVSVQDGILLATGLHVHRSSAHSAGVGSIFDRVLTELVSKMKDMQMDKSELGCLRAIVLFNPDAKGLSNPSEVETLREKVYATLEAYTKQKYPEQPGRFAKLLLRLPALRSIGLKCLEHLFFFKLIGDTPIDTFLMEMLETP
Protocol: as §5, §6

[6] = biological target: T4, Nurr1 homodimer (Homo sapiens, UniProt P43354); assay: Nurr1 LBD homodimerization assay (HTRF); format: biochemical; details: 30 μM, Tb3+-cryptate and sGFP labeled Nurr1 LBD
T4 construct: Tb^3+-cryptate labeled and sGFP-labeled Nurr1 LBD proteins; FRET acceptor consisted of sGFP-Nurr1 LBD
T4 sequence (P43354 360-595 limits assumed): as the sequence (P43354 360-595 limits assumed, one chain of several) above
Protocol: as §1, §2, §3, §4

[7] = biological target: T5, RXRβ (Homo sapiens, UniProt P28702); assay: Gal4-hybrid reporter gene assay, RXRβ; format: cell-based; details: for RXRβ activity at single concentration: 30 μM
T5 construct: CMV-hRXRβ-LBD; expressed in transfected cells; host or cells: HEK293T
T5 sequence (P28702 296-529 limits assumed): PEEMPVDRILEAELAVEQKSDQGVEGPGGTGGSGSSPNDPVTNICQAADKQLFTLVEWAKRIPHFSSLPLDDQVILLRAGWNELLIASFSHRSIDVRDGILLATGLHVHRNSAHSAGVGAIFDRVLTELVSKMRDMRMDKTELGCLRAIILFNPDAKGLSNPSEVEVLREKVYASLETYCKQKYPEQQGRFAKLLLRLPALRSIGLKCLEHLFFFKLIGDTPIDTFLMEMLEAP
Protocol: as §5, §6

[8] = biological target: T6, RXRα LBD (Homo sapiens, UniProt P19793); assay: Isothermal titration calorimetry, recombinant RXRα LBD; format: binding; details: ITC
T6 construct: made in house
T6 sequence (P19793 227-458 limits assumed): T2 sequence (P19793 227-458 limits assumed)
Protocol: (§7) Isothermal titration calorimetry. ITC experiments for ligand binding to Nurr1 and RXR were conducted on an Affinity ITC instrument (TA Instruments, New Castle, DE) at 25 °C with a stirring rate of 75 rpm using recombinantly expressed ligand binding domain proteins as described previously5,6. The respective LBD protein (12–25 μM) in buffer (20 mM Tris pH 7.5, 100 mM NaCl, 5% glycerol) containing 2-4% DMSO was titrated with the test compounds (100-150 μM in the same buffer containing 2-4% DMSO) in 21–26 injections (1 × 1 μL and 20 × 4 to 25 × 4 μL) with an injection interval of 120 s. As control experiments, the test compounds were titrated to the buffer, and the buffer was titrated to the protein under otherwise identical conditions. The heat rates of the compound-Nurr1 LBD titrations were analyzed using NanoAnalyze software (TA Instruments, New Castle, DE) with an independent binding model.

[9] = biological target: T7, Nurr1 LBD (Homo sapiens, UniProt P43354); assay: Isothermal titration calorimetry, recombinant Nurr1 LBD; format: binding; details: ITC
T7 construct: made in house
T7 sequence (P43354 360-595 limits assumed): as the sequence (P43354 360-595 limits assumed, one chain of several) above
Protocol: as §7

[10] = Gal4-hybrid reporter gene assay
[11] = Gal4-hybrid reporter gene assay, mean±S.E.M., n≥3

Structure (SMILES) | activity on RXR (fold reporter activation vs. DMSO ctrl) [2] | activity on Nurr1 (fold reporter activation vs. DMSO ctrl) [3] | RXRα activity at single concentration [4] | Kd(RXRα LBD) [8] | RXRγ activity at single concentration [5] | RXRβ activity at single concentration [7] | RXR activation [2] | Kd(Nurr1 LBD) [9] | remain. Nurr1 activity [3, 10] | agonist activity on Gal4-Nurr1 [3] | other results
CC1(C)CCC(C)(C)c2cc(C3(c4ccc(C(=O)O)cc4)OCCO3)ccc21 [SR11237, reference compound] | – | – | – | – | – | – | – | – | – | – | Nurr1:RXR heterodimer formation (dimer strength) [1]: Diminished dimer strength
CC(=O)O[C@@H]1CC(C)=C2[C@H]1[C@H](C)CC[C@H]2/C=C(\C)C(=O)O [VA-OAc, acetoxy-valerenic acid, reference compound] | no activity | no activity | – | – | – | – | – | – | – | – | –
CC1=C2[C@@H]([C@H](C)CC[C@H]2/C=C(\C)C(=O)O)[C@H](O)C1 [VA-OH, hydroxy-valerenic acid, reference compound] | no activity | no activity | – | – | – | – | – | – | – | – | –
CC1=C2[C@H](/C=C(\C)C(=O)O)CC[C@@H](C)[C@H]2CC1 [compound 1, valerenic acid] | – | – | – | – | – | – | – | – | – | – | max. act. (RXR) α [4, 10]: 9±1 fold; EC50 [4, 11]: 27 µM; max. act. (RXR) γ [5, 10]: 4±1 fold; EC50 [5, 11]: 43 µM; Nurr1 homodimer formation [6]: same effect; max. act. (RXR) β [7, 10]: 69±1 fold; EC50 [7, 11]: 5.2 µM; max. act. (Nurr1) ([3]; Gal4-hybrid reporter gene assay, max. fold activation): 1.3 fold and 1.3±0.1 fold; EC50 [3, 11]: 3 ± 1 µM
Cc1c2c(n(-c3ccc(CC(N)=O)cc3)c1C)CCC(F)(F)C2 [compound 4] | – | – | α: inactive (30 μM) β: inactive (30 μM) γ: inactive (30 μM) | no binding detected | α: inactive (30 μM) β: inactive (30 μM) γ: inactive (30 μM) | α: inactive (30 μM) β: inactive (30 μM) γ: inactive (30 μM) | failed to activate RXR | no binding detected | 86±9% remain. Nurr1 activity (30 μM) | lost agonist activity | –
Cc1c(C)n(-c2ccc(CC(N)=O)cc2)c2ccc(F)cc12 [compound 5] | – | – | α: inactive (30 μM) β: inactive (30 μM) γ: inactive (30 μM) | no binding detected | α: inactive (30 μM) β: inactive (30 μM) γ: inactive (30 μM) | α: inactive (30 μM) β: inactive (30 μM) γ: inactive (30 μM) | failed to activate RXR | no binding detected | 85±7% remain. Nurr1 activity (30 μM) | lost agonist activity | –
